{"source": "patent US20160002250A1", "about": "“POLYMORPHS AND SALTS OF A COMPOUND” (FORUM Pharmaceuticals Inc., priority 2013, published 2016)", "key": {"[1]": {"experiment": "Thermodynamic aqueous solubility", "settings": "for solubility at 24 h: 25 °C, thermodynamic from solid", "quoted_text": "The suspension was equilibrated at 25° C. for 24 hours then the pH was measured and adjusted with either HCl or NaOH if it deviated by more than 0.3 units from the target pH. The suspension was then filtered through a glass fiber C filter. […] Different volumes of the standard, diluted and undiluted sample solutions were injected.\nAnalysis was performed on an Agilent HP1100 series system equipped with a diode array detector and using ChemStation software. The following buffers were prepared to carry out the solubility analyses:\npH 1.2—made up by adding 85.0 mL of 0.2M HCl(aq) to 50 mL of 0.2M KCl(aq) and making up to 200 mL. pH 4.5—made up by adding 2.99 g of NaC2H3O2.3H2O to 14.0 mL of 2N AcOH(aq) and making up to 1000 mL. pH 7.4—made up adding 39.1 mL of 0.2M NaOH(aq) to 50.0 mL of a 0.2M KH2PO4 and making up to 200 mL."}, "[2]": {"experiment": "Log P determination (potentiometric titration)", "assay_type": "physicochemical", "settings": "octanol/ionic-strength adjusted (ISA) water", "source_text": "Data were collected by potentiometric titration on a Sirius G1pKa instrument using three ratios of octanol:ionic-strength adjusted (ISA) water to generate Log P, Log Pion, and Log D values. The data were refined using Refinement Pro software. Prediction of Log P values was made using ACD/Labs software."}, "[3]": {"experiment": "pKa determination (Sirius GlpKa)", "assay_type": "physicochemical", "settings": "25° C.", "procedure": "Data were collected on a Sirius G1pKa instrument with a D-PAS attachment. Measurements were made at 25° C. in aqueous solution by UV and in methanol water mixtures by potentiometry. The titration media was ionic-strength adjusted (ISA) with 0.15 M KCl (aq). The values found in the methanol water mixtures were corrected to 0% co-solvent via a Yasuda-Shedlovsky extrapolation. The data were refined using Refinement Pro software v2.2. Prediction of pKa values was made using ACD/Labs software."}}, "note": "Like-named read-outs stand apart in the source and are kept apart here.", "data": [{"compound": "CC1(C)OC(c2ccncc2)=C(c2ccc(OCc3cn4ncccc4n3)cc2)C1=O", "note": "[Free Base, 4-(4-(imidazo[1,2-b]pyridazin-2-ylmethoxy)phenyl)-2,2-dimethyl-5-(pyridin-4-yl)furan-3(2H)-one]", "values": [{"measurement": "solubility at 24 h", "setting": "[1]; aqueous buffer, pH 1.2, simulated gastric fluid", "value": 12200, "unit": "µg/mL"}, {"measurement": "solubility at 24 h", "setting": "[1]; aqueous buffer, pH 4.5, aqueous buffer", "value": 90, "unit": "µg/mL"}, {"measurement": "solubility at 24 h", "setting": "[1]; aqueous buffer, pH 7.4, aqueous buffer", "value": 50, "unit": "µg/mL"}, {"measurement": "pH of unfiltered saturated solution", "setting": "[1]; pH point 1.2", "value": 1.24}, {"measurement": "pH of unfiltered saturated solution", "setting": "[1]; pH point 4.5", "value": 4.71}, {"measurement": "pH of unfiltered saturated solution", "setting": "[1]; pH point 7.4", "value": 7.44}, {"measurement": "pH of unfiltered saturated solution", "setting": "[1]; pH point unadjusted aqueous", "value": 6.19}, {"measurement": "solubility at 24 h", "setting": "[1]; water (unadjusted aqueous), water", "value": 60, "unit": "µg/mL"}, {"measurement": "logP", "setting": "[2]", "value": 3}, {"measurement": "pKa", "setting": "[3]; read-out: pKa (first of two basic centers)", "value": 3.7}, {"measurement": "pKa", "setting": "[3]; read-out: pKa (second of two basic centers)", "value": 2.9}]}]}
